In the supplement of paper PMC10307832:

Columns and labels:
Assay in all cases: relative viability (nuclei count vs DMSO), 5 days (fraction); higher = more cells survive
Motesanib + OSI-027 = compound: CC1(C)CNc2cc(NC(=O)c3cccnc3NCc3ccncc3)ccc21 [Motesanib] + COc1cccc2cc(-c3nc([C@H]4CC[C@H](C(=O)O)CC4)n4ncnc(N)c34)[nH]c12 [OSI-027] (partner 0.5 µM)
Outline: (§1)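 Relative viability equals treated-well nuclei counts divided by vehicle-well nuclei counts. Counts came from 4× images of lung cancer cell lines grown in 1536-well plates for 5 days after pin-tool dosing on the day after seeding. Dosing used one drug alone or a fixed anchor-drug dose plus five library-drug doses (not always all listed) in √10 steps, and values are medians of duplicate plates.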

Motesanib + Tozasertib = compound: CC1(C)CNc2cc(NC(=O)c3cccnc3NCc3ccncc3)ccc21 [Motesanib] + Cc1cc(Nc2cc(N3CCN(C)CC3)nc(Sc3ccc(NC(=O)C4CC4)cc3)n2)n[nH]1 [Tozasertib] (partner 0.1 µM)
Outline: as §1

Motesanib + AZD7762 = compound: CC1(C)CNc2cc(NC(=O)c3cccnc3NCc3ccncc3)ccc21 [Motesanib] + NC(=O)Nc1cc(-c2cccc(F)c2)sc1C(=O)N[C@H]1CCCNC1 [AZD7762] (partner 0.2 µM)
Outline: as §1

[1] = compound: C[C@@]1(C(=O)Nc2ccc(F)nc2)CCCN1c1nc(Nc2cc(C3CC3)n[nH]2)c2cccn2n1 + Cc1nc(NC(=O)N2CCC[C@H]2C(N)=O)sc1-c1ccnc(C(C)(C)C(F)(F)F)c1 [Alpelisib] (partner 2 µM)
Outline: as §1

Cell Line	relative viability (Motesanib + OSI-027; first compound 0.01 µM)	relative viability (Motesanib + OSI-027; first compound 0.03162 µM)	relative viability (Motesanib + OSI-027; first compound 0.1 µM)	relative viability (Motesanib + OSI-027; first compound 0.3162 µM)	relative viability (Motesanib + OSI-027; first compound 1 µM)	relative viability (Motesanib + Tozasertib; first compound 0.01 µM)	relative viability (Motesanib + Tozasertib; first compound 0.03162 µM)	relative viability (Motesanib + Tozasertib; first compound 0.1 µM)	relative viability (Motesanib + Tozasertib; first compound 0.3162 µM)	relative viability (Motesanib + Tozasertib; first compound 1 µM)	relative viability (Motesanib + AZD7762; first compound 0.01 µM)	relative viability (Motesanib + AZD7762; first compound 0.3162 µM)	relative viability (Motesanib + AZD7762; first compound 1 µM)	relative viability ([1]; first compound 0.04 µM)	relative viability ([1]; first compound 0.1265 µM)	relative viability ([1]; first compound 1.265 µM)	relative viability (Motesanib + AZD7762; first compound 0.03162 µM)	relative viability (Motesanib + AZD7762; first compound 0.1 µM)	relative viability ([1]; first compound 0.4 µM)
NCI-H1648	0.275	0.283	0.268	0.275	0.295	0.307	0.367	0.281	0.528	0.345	0.496	0.702	0.597						
SK-MES-1	0.611	0.59	0.661	0.648	0.564	0.822	0.91	0.958	0.935	0.922				0.962	0.676	0.843			
HCC-366	0.964	0.959	0.863	0.881	1.03	0.124	0.115	0.126	0.139	0.0819	0.278	0.248	0.207	0.205	0.162	0.163	0.214	0.46	0.141
201T	0.683	0.726	0.779	0.506	0.69	0.888	0.833	1.05	0.923	0.97	0.592	0.637	0.672	0.893	0.836	0.942	0.617	0.734	0.767
HCC-827	0.669	0.809	0.749	0.761	0.755	0.405	0.425	0.464	0.48	0.431	0.216	0.213	0.175	0.987	1	1.01	0.29	0.196	0.93
NCI-H647	0.848	0.528	0.578	0.717	0.557	0.304	0.239	0.285	0.404	0.359	0.493	0.621	0.525	1.24	0.957	0.913	0.464	0.441	0.864
NCI-H2023	0.453	0.374	0.373	0.404	0.429	0.379	0.309	0.346	0.325	0.286				0.407	0.374	0.407			0.376
NCI-H520	0.29	0.226	0.231	0.24	0.253	0.37	0.371	0.453	0.45	0.447				0.918	0.688	0.801			0.926
RERF-LC-KJ	0.637	0.565	0.582	0.59	0.593	0.536	0.478	0.527	0.501	0.505	0.9	1.03	0.813	0.708	0.866	0.787	0.873	1.06	0.515
A-427	0.4	0.459	0.485	0.545	0.5	0.185	0.191	0.24	0.236	0.173	0.709	0.775	0.668	1.08	1.09	1.16	0.733	0.821	1.03
NCI-H441	0.557	0.619	0.608	0.577	0.547	0.675	0.518	0.66	0.543	0.578	0.97	1.01	0.954	0.616	0.547	0.56	1.2	1.1	0.492
NCI-H1703												0.13	0.13	0.485	0.266	0.3	0.127	0.139	0.28
NCI-H1792		0.65	0.723	0.824	0.651						0.621	0.635	0.71	0.618	0.538	0.686	0.706	0.92	0.58
Calu-6														1.05	0.932	0.455			0.888
SK-LU-1	0.35	0.36	0.401	0.41	0.394	0.325	0.298	0.352	0.327	0.263				1.18	0.965	0.708			0.825
PC-3 [JPC-3]	0.8	0.737	0.784	0.759	0.86	0.855	0.931	0.884	0.864	0.85	0.779	0.731	0.683	1.06	0.945	0.974	0.751	0.727	0.893
EMC-BAC-2	0.398	0.341	0.36	0.412	0.378	0.286	0.238	0.351	0.309	0.281	1.07	1.2	1.04	0.634	0.664	0.818	1.1	1.09	0.613
LK-2	0.225	0.195	0.168	0.218	0.256	0.177	0.163		0.163	0.181	0.364	0.497	0.371	1.01	1.13	1.23	0.337	0.281	0.818
NCI-H2126	0.815	0.737	0.674	0.774	0.781	0.883	0.922	0.915	0.855	0.867	1.04	1.03	1.09	0.637	0.561	0.657	1.05	0.999	0.531
NCI-H3122	0.836	0.962	0.933	1.08	1.23	0.301	0.369	0.409	0.475	0.452	0.972	1.06	1.15	0.637	0.514	0.564	1.02	0.945	0.631
